Experimental data from patent EP0909175B1, “NON-AQUEOUS PROTIC PEPTIDE FORMULATIONS” (ALZA CORPORATION, priority 1996, dated 1998).
Values belong to the substance of their own block, whether it stands above or below them.

How the values were obtained:
Assay type in all cases: physicochemical
[1] = Solubility studies of leuprolide acetate in PG (Example 3); settings: in PG (w/w), heated at 80°C to accelerate dissolution
Protocol: Leuprolide acetate (obtained, for example, from Mallinckrodt, St. Louis, Missouri) was weighed and dissolved using heat (80°C), swirling, agitation and/or centrifugation as needed, in vehicle (PG, PEG, MPEG, PG/H2O, PG/H2O, PEG/PG, MPEG/H2O, or PG with EDTA) at the appropriate concentration (w/w). Unless otherwise noted the term PEG means PEG 300. The term dry PG refers to PG formulations prepared in a low moisture environment (i.e., dry N2 atmosphere). Leuprolide acetate formulations in PG were prepared as described above. Formulations were heated at 80°C to accelerate the dissolution of leuprolide in PG.

[2] = Anti-gellant effect of adding polar aprotic solvents (DMSO) to non-aqueous protic solvent formulations; settings: adding polar aprotic solvents such as DMSO to non-aqueous protic solvent formulation
Text: For example, leuprolide can be induced to gel by increasing peptide concentration, introduction of salts or gentle agitation. Improving physical stability can allow for easier parenteral administration, including administration using implantable drug delivery systems.
Thus, these solvents have an anti-gellant effect.

[3] = Stability of goserelin formulations, one month at 37°C, RP-HPLC (Example 10); settings: for % CONCENTRATION: patent calls % concentration data unreliable
Protocol: (§1) Stability samples were analyzed using RP-HPLC. The area under the curve for the leuprolide peak divided by the sum of the areas under the curve of all peaks gave % purity. [It should be noted that the data for % concentration presented with the % purity data (Examples 6, 8, 9 and 10) are inconclusive. The analysis methods used to determine % concentration in these experiments were unreliable.]
Formulations of 40-45% (w/w) goserelin in either PEG 600 or PG/acetate buffer (30:70) were prepared as described above and placed in polymeric containers. The containers were stored at 37°C for one month in an incubator. The samples were analyzed using RP-HPLC to determine the chemical stability of the aged formulations.

[4] = Stability of nafarelin formulations, one month at 37°C, RP-HPLC (Example 11); settings: for % CONCENTRATION: % concentration method called unreliable
Protocol: as §1
Formulations of 15% (w/w) nafarelin in either PEG 600 or propylene glycol were prepared as described above for leuprolide and placed in polymeric containers.
The containers were stored at 37°C for one month in an incubator.
The samples were analyzed using RP-HPLC to determine the chemical stability of the aged formulations.

[5] = vehicle PEG 600, one month at 37°C

Substance: Leuprolide acetate
- % Leuprolide Acetate ([1]; 146.8 mg leuprolide acetate in 147.2 mg PG): 49.93%
- % Leuprolide Acetate ([1]; 148.6 mg leuprolide acetate in 225.7 mg PG): 39.70%
- % Leuprolide Acetate ([1]; 154 mg leuprolide acetate in 183.7 mg PG): 45.60%

Substance: goserelin
- gelation of the formulation [2]: prevents gelation
- % PURITY ([3]; vehicle PEG 600, 40-45% (w/w), one month at 37°C): 99.3%
- % CONCENTRATION [3, 5]: 23.6%
- % PURITY ([3]; vehicle PG/Acetate Buffer(30:70), 40-45% (w/w), one month at 37°C): 98.2%
- % CONCENTRATION ([3]; vehicle PG/Acetate Buffer(30:70), one month at 37°C): 49.7%

Substance: nafarelin
- % PURITY ([4]; vehicle PEG 600, 15% (w/w), one month at 37°C): 99.4%
- % CONCENTRATION [4, 5]: 15.8%
- % PURITY ([4]; vehicle PG, 15% (w/w), one month at 37°C): 99.4%
- % CONCENTRATION ([4]; vehicle PG, one month at 37°C): 12.9%

Next, values leading:

- gelation of the formulation [2]: prevents gelation
Substance: calcitonin

- gelation of the formulation [2]: prevents gelation
Substance: leuprolide
